From patent US20100137376A1 (priority 2007, published 2010)

Key:
Stagonospora nodorum = experiment: Test of Preventive Effect on Wheat Glume Blotch; type: in vivo; settings: wheat (Shirogane), foliage application 500 ppm before inoculation, 18° C. 4 days dark high humidity then 4 days lighting
Description: (§1) In the following Test Examples, foliage application was accomplished by spraying each test solution over a different plant.
(§2) The controlling effect was evaluated by visually observing the area or lesion spots on each of test plants at the time of investigation and comparing the area of lesion spots on a plant treated with the present compound with that on an untreated plant.
Each of plastic pots was filled with sandy loam and sown with wheat (cultivar; Shirogane), followed by growing in a greenhouse for 10 days.
Each of the present compounds 1 and 3 to 37 was formulated into a flowable formulation according to Formulation Example 6. The flowable formulation was diluted to a predetermined concentration (500 ppm) with water, and foliage application of the dilution was carried out so that the dilution could adhere sufficiently to the surfaces of leaves of the grown wheat seedling.
The wheat which was applied by the dilution was air-dried and then inoculated by spraying a water suspension of spores of Stagonospora nodorum.
After the inoculation, the plant was held under darkness and high humidity conditions at 18° C. for 4 days and then under lighting conditions for 4 days, and then the area of lesion spots was investigated.

Septoria tritici = experiment: Test of Preventive Effect on Wheat Leaf Blotch; type: in vivo; settings: wheat (Apogee), foliage application 500 ppm, inoculation after 3 or 4 days, 18° C. high humidity 3 days then lighting 14 to 18 days
Description: as §1, §2
Each of plastic pots was filled with sandy loam and sown with wheat (cultivar: Apogee), followed by growing in a greenhouse for 10 days. Each of the present compounds 49 to 52 was formulated into a flowable formulation according to Formulation Example 6. The flowable formulation was diluted to a predetermined concentration (500 ppm) with water, and foliage application of the dilution was carried out so that the dilution could adhere sufficiently to the surfaces of leaves of the grown wheat seedling. After the application, the plant was air-dried. After 3 or 4 days, the plant was inoculated by spraying a water suspension of spores of Septoria tritici. After the inoculation, the plant was held under high humidity conditions at 18° C. for 3 days and then under lighting condition for 14 to 18 days. Then, the area of lesion spots was investigated.

How did the “area of lesion spots on the treated plant relative to that on an untreated plant” value (Stagonospora nodorum) turn out when O=C(NCC1CCCCC1)c1ccnc(F)c1 [compound 4] was run?
The value was no more than 30%.

Which “area of lesion spots on the treated plant relative to that on an untreated plant” value (Septoria tritici) does the source give for CC1CCCCC1NC(=O)c1cc(N)nc(F)c1 (centres unmarked) [compound 50] here?
The value was no more than 30%.
